Assay results published in ChEMBL document CHEMBL5303766, “Data for DCP probe FHT-2344” (2022).

Key:
[1] = target: 5-hydroxytryptamine receptor 2B (Homo sapiens, UniProt P41595); assay: GPCRScan assay: inhibition of 5-HT2B; set-up: radioligand conc. used [nm] 1.0 – 2.0, parental cells stable HEK
[2] = target: Casein kinase II subunit alpha' (Homo sapiens) (UniProt P19784); assay: CSNK2A2 SGC Tm panel (DSF)
[3] = GPCRScan assay: inhibition of GABA/PBR; set-up: species or system Rattus norvegicus; radioligand conc. used [nm] 0.3 – 2.0, parental cells brain tissue
[4] = target: Chromodomain-helicase-DNA-binding protein 4 (Homo sapiens, UniProt Q14839); assay: Measurement of the ATPase catalytic activity using the ADP-Glo detection ([…]); format: functional
Chromodomain-helicase-DNA-binding protein 4, sequence (Q14839 whole entry): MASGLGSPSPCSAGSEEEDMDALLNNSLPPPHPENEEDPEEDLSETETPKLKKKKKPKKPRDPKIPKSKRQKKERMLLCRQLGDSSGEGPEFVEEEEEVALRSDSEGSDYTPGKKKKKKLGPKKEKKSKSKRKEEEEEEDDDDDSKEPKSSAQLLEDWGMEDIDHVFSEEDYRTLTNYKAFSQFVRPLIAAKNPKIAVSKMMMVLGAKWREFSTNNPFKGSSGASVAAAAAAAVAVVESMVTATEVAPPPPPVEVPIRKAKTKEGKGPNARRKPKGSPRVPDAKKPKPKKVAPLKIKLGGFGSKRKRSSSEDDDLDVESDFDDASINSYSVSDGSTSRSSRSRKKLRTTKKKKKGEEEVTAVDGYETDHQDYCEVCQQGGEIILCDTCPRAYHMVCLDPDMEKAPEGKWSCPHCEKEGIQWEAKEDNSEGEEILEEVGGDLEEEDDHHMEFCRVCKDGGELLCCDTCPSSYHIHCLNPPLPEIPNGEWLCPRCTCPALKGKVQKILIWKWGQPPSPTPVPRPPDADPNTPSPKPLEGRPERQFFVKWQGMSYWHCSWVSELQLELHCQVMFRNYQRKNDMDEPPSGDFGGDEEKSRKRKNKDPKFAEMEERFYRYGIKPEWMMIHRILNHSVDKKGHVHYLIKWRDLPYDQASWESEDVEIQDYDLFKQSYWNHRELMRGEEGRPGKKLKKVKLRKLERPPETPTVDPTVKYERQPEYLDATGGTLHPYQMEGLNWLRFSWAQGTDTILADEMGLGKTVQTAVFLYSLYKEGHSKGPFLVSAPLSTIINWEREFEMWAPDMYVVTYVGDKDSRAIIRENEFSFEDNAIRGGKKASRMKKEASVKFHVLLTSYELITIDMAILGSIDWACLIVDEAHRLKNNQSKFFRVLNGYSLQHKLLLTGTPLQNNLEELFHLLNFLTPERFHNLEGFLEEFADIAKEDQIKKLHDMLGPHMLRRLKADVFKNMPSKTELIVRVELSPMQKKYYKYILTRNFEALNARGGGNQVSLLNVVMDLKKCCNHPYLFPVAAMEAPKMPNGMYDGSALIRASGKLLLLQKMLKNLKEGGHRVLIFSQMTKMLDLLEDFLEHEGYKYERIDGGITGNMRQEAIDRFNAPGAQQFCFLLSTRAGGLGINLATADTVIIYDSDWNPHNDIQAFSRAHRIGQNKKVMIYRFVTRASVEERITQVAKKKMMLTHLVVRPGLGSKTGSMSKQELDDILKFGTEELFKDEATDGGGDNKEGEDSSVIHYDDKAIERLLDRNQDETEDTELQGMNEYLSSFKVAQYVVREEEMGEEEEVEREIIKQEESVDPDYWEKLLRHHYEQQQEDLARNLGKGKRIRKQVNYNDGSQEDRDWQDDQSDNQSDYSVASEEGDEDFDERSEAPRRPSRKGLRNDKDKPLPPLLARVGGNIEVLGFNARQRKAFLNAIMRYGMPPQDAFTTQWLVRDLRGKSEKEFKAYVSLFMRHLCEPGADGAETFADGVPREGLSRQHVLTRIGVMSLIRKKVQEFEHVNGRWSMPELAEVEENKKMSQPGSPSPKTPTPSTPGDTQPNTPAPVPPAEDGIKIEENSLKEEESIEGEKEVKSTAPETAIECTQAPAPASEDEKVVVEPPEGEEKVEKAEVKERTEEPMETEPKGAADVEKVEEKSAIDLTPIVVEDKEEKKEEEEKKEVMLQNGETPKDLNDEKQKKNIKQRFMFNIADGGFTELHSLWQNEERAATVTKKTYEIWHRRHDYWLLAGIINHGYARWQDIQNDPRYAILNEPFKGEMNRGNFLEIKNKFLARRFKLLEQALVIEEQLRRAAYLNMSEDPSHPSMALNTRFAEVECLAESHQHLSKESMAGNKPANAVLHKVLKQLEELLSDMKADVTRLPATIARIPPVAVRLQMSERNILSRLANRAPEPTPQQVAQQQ

[5] = target: Casein kinase II subunit alpha' (Homo sapiens) (UniProt P19784); assay: CSNK2A2A SGC Tm panel (DSF)
[6] = target: Histamine H4 receptor (Homo sapiens) (UniProt Q9H3N8); conditions: Compound concentration 10.0 uM
Histamine H4 receptor (Homo sapiens), sequence (Q9H3N8 whole entry): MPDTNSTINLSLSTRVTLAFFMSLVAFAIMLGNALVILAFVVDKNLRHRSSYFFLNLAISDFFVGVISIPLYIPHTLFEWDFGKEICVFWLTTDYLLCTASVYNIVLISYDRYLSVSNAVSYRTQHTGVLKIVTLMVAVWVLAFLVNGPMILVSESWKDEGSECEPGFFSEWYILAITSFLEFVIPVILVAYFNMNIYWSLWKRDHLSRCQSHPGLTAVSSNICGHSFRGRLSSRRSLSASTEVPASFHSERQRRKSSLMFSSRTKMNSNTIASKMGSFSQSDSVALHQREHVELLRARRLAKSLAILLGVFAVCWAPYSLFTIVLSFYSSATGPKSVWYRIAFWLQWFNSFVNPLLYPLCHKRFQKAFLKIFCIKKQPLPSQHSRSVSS

Casein kinase II subunit alpha' (Homo sapiens), sequence (P19784 whole entry, looked up): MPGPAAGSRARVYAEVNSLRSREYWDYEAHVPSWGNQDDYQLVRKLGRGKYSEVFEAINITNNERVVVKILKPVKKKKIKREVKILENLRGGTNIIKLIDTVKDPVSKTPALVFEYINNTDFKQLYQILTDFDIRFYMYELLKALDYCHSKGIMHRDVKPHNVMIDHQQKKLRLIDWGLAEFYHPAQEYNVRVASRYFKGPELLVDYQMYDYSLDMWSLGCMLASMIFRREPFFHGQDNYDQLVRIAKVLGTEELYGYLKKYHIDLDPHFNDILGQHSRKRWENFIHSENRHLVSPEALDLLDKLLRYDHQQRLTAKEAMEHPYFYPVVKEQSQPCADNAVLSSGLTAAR
5-hydroxytryptamine receptor 2B, sequence (P41595 whole entry): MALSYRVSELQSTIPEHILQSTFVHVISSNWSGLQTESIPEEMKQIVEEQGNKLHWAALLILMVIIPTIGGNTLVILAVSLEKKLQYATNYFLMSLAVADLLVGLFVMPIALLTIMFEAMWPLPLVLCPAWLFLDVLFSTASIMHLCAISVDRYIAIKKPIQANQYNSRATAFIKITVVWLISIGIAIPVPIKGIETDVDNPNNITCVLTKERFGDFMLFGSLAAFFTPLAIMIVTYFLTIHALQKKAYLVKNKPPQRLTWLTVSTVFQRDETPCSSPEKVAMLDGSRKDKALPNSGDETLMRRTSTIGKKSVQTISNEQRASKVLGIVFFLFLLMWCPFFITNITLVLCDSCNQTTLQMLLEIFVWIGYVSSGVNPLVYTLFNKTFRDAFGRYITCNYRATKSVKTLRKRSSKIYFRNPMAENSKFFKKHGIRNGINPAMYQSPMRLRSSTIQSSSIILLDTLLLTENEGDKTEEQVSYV

Q: What does the source list for `C[C@H](NC(=O)c1cn(C2(C#N)CC2)cn1)C(=O)Nc1nc(-c2cccc(-c3ccn(C)n3)c2)cs1`?
A: Ki ([1]; read-out: Ki): 508 nM; Ki ([1]; read-out: pKi (converted)): 490 nM; delta Tm Staurosporine positive control [2]: 4.26; ΔTm ([2]; Compound concentration 10.0 uM): -0.217; Ki [3]: 1580 nM; pKi [3]: 5.81

Q: With `COC[C@H](NC(=O)c1ccn(S(C)(=O)=O)c1)C(=O)Nc1nc(-c2cccc(-c3ccn(C)n3)c2)cs1` as the molecule, how does the IC50 [4] read?
A: Its IC50 is > 200000 nM (not active).

Q: And the delta Tm Staurosporine positive control [5]?
A: The delta Tm Staurosporine positive control was 4.26.

Q: And the ΔTm ([5]; Compound concentration 10.0 uM)?
A: The ΔTm was 0.0547.

Q: And the inhibition [6]?
A: The inhibition was -0.33%.
